Legend:
[1] = cited from earlier work
[2] = cited from earlier work; remark: listed apart in the source
[3] = cited from earlier work; remark: listed apart in the source
[4] = Complex formation with β-cyclodextrin, association constant (ITC measurements for cetirizine); format: binding; conditions: beta versus alpha and gamma cyclodextrin
Source text: Alpha cyclodextrin consists of a ring of 6 glucose units while beta has 7 glucose units in a ring and gamma has 8 glucose units in a ring. The ring structures form a crown. The inside of the crown is able to complex with APIs in the current application. […] Either the phenyl group or the 4-chlorophenyl group fit inside the ring structure. The inside cavity of cylcodextrins is largely hydrophobic, which is favorable for APIs' hydrophobic aromatic systems. The formation of the chelate structure is endothermically favorable due to electrostatic interactions of the pi system of the aromatic moiety with in the hydrophobic cavity and electronic interaction with the hydrogen atoms and glycidyl ether bonds. It is these electronic interactions between these systems of the cyclodextrin and the pi system that gives the favorable heat of formation. […] In one embodiment, the complexing composition consists essentially of beta-cyclodextrin.
Diphenhydramine forms complexes with cylcodextrins. The mechanism is similar to that of cetirizine. […] In one embodiment, the complexing agent comprises beta cyclodextrin, which is configured to form antihistamine complex. In some embodiments, the complexing agent comprises alpha-cyclodextrin, gamma-cyclodextrin, or a combination there. The action of coordination with diphenhydramine is similar to that of cetirizine.

[5] = per 1 gram of water; cited from earlier work

In the case of `O=C(O)COCCN1CCN(C(c2ccccc2)c2ccc(Cl)cc2)CC1` (stereo not drawn) [Cetirizine, cetirizine], the “association constant K(a) of the complex with γ-cyclodextrin” value [1] is listed as 1200 ± 50 M⁻¹, the “association constant K(a) of the complex with β-cyclodextrin” value [2] is listed as 5641 ± 358 M⁻¹ and the “association constant K(a) of the complex with α-cyclodextrin” value [3] is listed as 1434 ± 60 M⁻¹. The “formation constant with beta cyclodextrin relative to alpha and gamma cyclodextrin” value [4] was “nearly four times”.

In the case of `O=C(CO)[C@@H](O)[C@H](O)[C@H](O)CO` [fructose], the “amount that dissolves into 1 gram of water” value [5] is given as roughly 4 grams.

In the case of `OC[C@H]1O[C@@](CO)(O[C@H]2O[C@H](CO)[C@@H](O)[C@H](O)[C@H]2O)[C@@H](O)[C@@H]1O` [sucrose, O-α-D-glucopyranosyl-(1→2)-β-D-fructofuranoside], the “amount that dissolves into 1 gram of water” value [5] is listed as “More than 2 grams”.
